The values that follow come from US6579898B2, “Compositions having improved bioavailability” (Pfizer Inc., priority 2001, dated 2003).

The conditions of data set [1]: in vivo.
The target in data set [2] is p-gp (Homo sapiens, UniProt P08183). In words: in vitro. Particulars: Caco-2.
The nature of data set [3]: Effect of Vitamin E-TPGS on the pharmacokinetics of eletriptan in beagle dogs. The settings on record: male, dog, plasma, oral, fasted, 0.2 or 1.0 mg/kg eletriptan with or without 6.67 mg/kg Vitamin E-TGPS. It counts as in vivo. As for the experimental part:
This was a crossover study to assess the effects of Vitamin E-TGPS on the rate of absorption of eletriptan. Four male beagle dogs were orally dosed in the fasted state with a 20 ml aqueous formulation comprising
(a) 0.2 mg/kg eletriptan;
(b) 0.2 mg/kg eletriptan coformulated with 6.67 mg/kg of Vitamin E-TGPS;
(c) 1.0 mg/kg eletriptan; and
(d) 1.0 mg/kg eletriptan coformulated with 6.67 mg/kg of Vitamin E-TGPS.
Blood samples (2.5 ml) were collected at 0, 0.17, 0.33, 0.5, 1, 2, 4, 6, 8, 12 and 24 hours after dosing and centrifuged. The resulting plasma samples were deep frozen until analysed for eletriptan by hplc with electrochemical detection.

The nature of data set [4]: Eletriptan transport across Caco-2 cell monolayers, effect of concentration. The settings on record: human, 2 hours, 37° C. It counts as in vitro ADME, human. As for the experimental part: (§1) Caco-2 cell monolayers were grown on permeable 24 well filter supports (1 μm poresize) and used at Day 15-28.
(§2) In studies examining the effect of concentration, 1, 10, 25 and 100 μM solutions of eletriptan in HBSS were added to the donor chamber and Hank's balanced salt solution (HBSS) was added to the acceptor chamber. The volume of the apical and basolateral chambers were 0.25 ml and 1 ml respectively.
Background: Passage across Caco-2 layers is used to estimate intestinal permeability.

For data set [5], the system named is Human Intestinal (Caco-2) Cell Monolayers. Described as above. Type of data set: in vitro ADME. Particulars: Caco-2, higher secretory than absorptive flux at low concentrations. Here is the method: as §1, §2

p-gp, sequence (P08183 whole entry): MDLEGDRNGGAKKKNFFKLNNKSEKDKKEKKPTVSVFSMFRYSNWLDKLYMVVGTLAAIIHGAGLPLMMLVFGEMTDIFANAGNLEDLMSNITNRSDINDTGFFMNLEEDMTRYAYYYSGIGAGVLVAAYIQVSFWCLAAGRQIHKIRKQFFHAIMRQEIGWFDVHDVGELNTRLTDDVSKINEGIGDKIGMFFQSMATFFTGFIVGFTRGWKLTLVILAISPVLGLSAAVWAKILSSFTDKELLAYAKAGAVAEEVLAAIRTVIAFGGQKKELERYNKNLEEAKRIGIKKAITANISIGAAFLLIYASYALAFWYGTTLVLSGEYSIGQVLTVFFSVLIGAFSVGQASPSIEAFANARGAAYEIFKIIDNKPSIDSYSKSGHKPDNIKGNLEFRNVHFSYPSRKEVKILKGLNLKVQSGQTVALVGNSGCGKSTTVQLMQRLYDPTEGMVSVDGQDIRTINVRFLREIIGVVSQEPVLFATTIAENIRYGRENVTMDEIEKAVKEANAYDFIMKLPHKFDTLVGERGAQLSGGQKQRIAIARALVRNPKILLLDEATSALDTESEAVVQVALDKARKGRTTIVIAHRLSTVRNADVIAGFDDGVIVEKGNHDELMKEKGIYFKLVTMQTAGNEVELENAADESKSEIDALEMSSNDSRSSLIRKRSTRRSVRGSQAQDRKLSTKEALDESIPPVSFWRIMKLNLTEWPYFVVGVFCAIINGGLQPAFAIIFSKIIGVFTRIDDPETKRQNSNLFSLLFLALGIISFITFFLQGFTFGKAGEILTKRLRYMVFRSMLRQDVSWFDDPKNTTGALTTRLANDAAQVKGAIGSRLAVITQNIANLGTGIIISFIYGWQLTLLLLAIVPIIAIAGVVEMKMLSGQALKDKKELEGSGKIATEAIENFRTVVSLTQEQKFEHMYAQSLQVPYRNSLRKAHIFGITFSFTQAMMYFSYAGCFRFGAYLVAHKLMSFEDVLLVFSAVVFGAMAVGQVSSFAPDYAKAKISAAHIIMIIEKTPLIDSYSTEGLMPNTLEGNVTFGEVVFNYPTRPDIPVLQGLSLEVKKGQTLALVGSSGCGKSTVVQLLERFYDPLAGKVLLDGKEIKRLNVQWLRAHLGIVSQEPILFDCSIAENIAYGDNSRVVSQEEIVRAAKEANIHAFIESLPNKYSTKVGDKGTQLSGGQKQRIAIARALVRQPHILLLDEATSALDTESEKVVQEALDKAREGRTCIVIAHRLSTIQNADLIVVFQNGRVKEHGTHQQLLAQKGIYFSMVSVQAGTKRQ

For `CC[C@H]1OC(=O)[C@H](C)[C@@H](O[C@H]2C[C@@](C)(OC)[C@@H](O)[C@H](C)O2)[C@H](C)[C@@H](O[C@@H]2O[C@H](C)C[C@H](N(C)C)[C@H]2O)[C@](C)(O)C[C@@H](C)C(=O)[C@H](C)[C@@H](O)[C@]1(C)O` [erythromycin], in data set [1], the “eletriptan kel with the inhibitor” value is on record as “significantly reduced”.
For `CC(=O)N1CCN(c2ccc(OCC3COC(Cn4ccnc4)(c4ccc(Cl)cc4Cl)O3)cc2)CC1` (stereo not drawn) [ketoconazole], the “eletriptan kel with the inhibitor” value in data set [1] is “significantly reduced”.
In the case of `CN1CCC[C@@H]1Cc1c[nH]c2ccc(CCS(=O)(=O)c3ccccc3)cc12` [eletriptan], in data set [2], the Papp A→B (commonly how fast a substance crosses the layer from the apical side) at 2 h, 10 μM amounted to 16 ×10⁻⁶ cm/s and the Papp B→A (commonly the apparent permeability from the basolateral to the apical side of a cell layer) at 2 h, 10 μM turned out to be 32.6 ×10⁻⁶ cm/s. Also, in data set [3], the Cmax fell in the range of 7 to 15 ng/mL and the Tmax is 1 to 1.7 h. Besides, in data set [4] (Caco-2, 1 μM eletriptan, read-out: Absorptive A -> B Papp), the Papp A→B at 2 h, 1 μM was 17 ×10⁻⁶ cm/s. In addition, the Papp B→A at 2 h, 1 μM in data set [4] (Caco-2, 1 μM eletriptan, read-out: Secretory B -> A Papp) is 41.8 ×10⁻⁶ cm/s. Moreover, the apical-to-basolateral permeability (Papp A→B) at 2 h, 10 μM in data set [4] (Caco-2, 10 μM eletriptan, read-out: Absorptive A -> B Papp) came to 20.2 ×10⁻⁶ cm/s. For the same molecule, the Papp B→A at 2 h, 10 μM in data set [4] (Caco-2, 10 μM eletriptan, read-out: Secretory B -> A Papp) worked out at 36.1 ×10⁻⁶ cm/s. Further, the Papp A→B at 2 h, 25 μM in data set [4] (Caco-2, 25 μM eletriptan, read-out: Absorptive A -> B Papp) amounted to 21.1 ×10⁻⁶ cm/s. In data set [4] (Caco-2, 25 μM eletriptan, read-out: Secretory B -> A Papp), the apparent permeability from basolateral to apical (Papp B→A) at 2 h, 25 μM came to 34.1 ×10⁻⁶ cm/s. Besides, in data set [4] (Caco-2, 100 μM eletriptan, read-out: Absorptive A -> B Papp), the Papp A→B at 2 h, 100 μM was determined as 29.9 ×10⁻⁶ cm/s. In data set [4] (Caco-2, 100 μM eletriptan, read-out: Secretory B -> A Papp), the Papp B→A at 2 h, 100 μM was determined as 32.8 ×10⁻⁶ cm/s. In addition, the “substrate for the p-gp efflux transporter” value in data set [5] is recorded as “substrate”.
